≈ marks a conversion by molar mass, not a printed value. Read-outs that look alike come from different tables or passages of the source.
How the values were obtained:
[1] = Pharmacokinetic properties in SD rats; type: in vivo; conditions: rat; SD rats (male), intravenous, 20 mg/kg; blood, biological assay (agar well method)
Experimental: The pharmacokinetic properties of the compound of the present invention were determined using SD rats (.male.) weighing 220 to 340 g. Specifically, the test samples were administered in intravenous route in an amount of 20 mg/kg to 2 to 5 test animals. Blood was taken from femoral vein every hours after the administration and then subjected to a biological assay using agar well method to measure the blood concentration. The results of pharmacokinetic properties calculated from the above blood concentration are described in the following Table 3.

[2] = test system: E. coli TEM9 2639E; experiment: Minimum inhibitory concentration, agar dilution; type: cell-based; conditions: Escherichia coli, TEM92639E, 20 h, read-out: Minimum Inhibitory Concentration
Experimental: (§1) The minimum inhibitory concentration was determined by diluting the test compounds according to 2-fold dilution, suspending them in M uller-Hinton agar medium, inoculating the test strains having 10^7 CFU per 1 ml into the medium and then culturing the medium at 37° C. for 20 hours.

[3] = test system: A. calcoaceticus 15473A; experiment: Minimum inhibitory concentration, agar dilution; type: cell-based; conditions: Acinetobacter calcoaceticus, Muller-Hinton agar, 10^7 CFU per ml, 37° C., 20 hours
Experimental: as §1

[4] = test system: P. aeruginosa 1912E; experiment: Minimum inhibitory concentration, agar dilution; type: cell-based; conditions: Pseudomonas aeruginosa, 20 h, read-out: Minimum Inhibitory Concentration
Experimental: as §1

[5] = test system: S. marcescens 1826E; experiment: Minimum inhibitory concentration, agar dilution; type: cell-based; conditions: Serratia marcescens, Muller-Hinton agar, 10^7 CFU per ml, 37° C., 20 hours
Experimental: as §1

[6] = test system: S. faecalis 29212A; experiment: Minimum inhibitory concentration, agar dilution; type: cell-based; conditions: Enterococcus faecalis, read-out: Minimum Inhibitory Concentration
Experimental: as §1

[7] = test system: P. aeruginosa 6065Y; experiment: Minimum inhibitory concentration, agar dilution; type: cell-based; conditions: Pseudomonas aeruginosa, 20 h, read-out: Minimum Inhibitory Concentration
Experimental: as §1

[8] = test system: E. coli 10536; experiment: Minimum inhibitory concentration, agar dilution; type: cell-based; conditions: read-out: Minimum Inhibitory Concentration
Experimental: as §1

[9] = test system: E. coli TEM5 3739E; experiment: Minimum inhibitory concentration, agar dilution; type: cell-based; conditions: Escherichia coli, TEM53739E, 20 h, read-out: Minimum Inhibitory Concentration
Experimental: as §1

[10] = test system: P. aeruginosa 10145; experiment: Minimum inhibitory concentration, agar dilution; type: cell-based; conditions: Pseudomonas aeruginosa, Muller-Hinton agar, 10^7 CFU per ml, 37° C., 20 hours
Experimental: as §1

[11] = test system: E. coli TEM1 1193E; experiment: Minimum inhibitory concentration, agar dilution; type: cell-based; conditions: Escherichia coli, TEM11193E, 20 h, read-out: Minimum Inhibitory Concentration
Experimental: as §1

[12] = test system: E. coli 3190Y; experiment: Minimum inhibitory concentration, agar dilution; type: cell-based; conditions: Escherichia coli, read-out: Minimum Inhibitory Concentration
Experimental: as §1

[13] = test system: S. aureus giorigio; experiment: Minimum inhibitory concentration, agar dilution; type: cell-based; conditions: Staphylococcus aureus, Muller-Hinton agar, 10^7 CFU per ml, 37° C., 20 hours
Experimental: as §1

[14] = test system: S. typhimurium 14028A; experiment: Minimum inhibitory concentration, agar dilution; type: cell-based; conditions: Salmonella enterica, read-out: Minimum Inhibitory Concentration
Experimental: as §1

[15] = test system: K. aerogenes 1976E; experiment: Minimum inhibitory concentration, agar dilution; type: cell-based; conditions: Klebsiella aerogenes, Muller-Hinton agar, 10^7 CFU per ml, 37° C., 20 hours
Experimental: as §1

[16] = test system: S. aureus 6538pA; experiment: Minimum inhibitory concentration, agar dilution; type: cell-based; conditions: Staphylococcus aureus, Muller-Hinton agar, 10^7 CFU per ml, 37° C., 20 hours
Experimental: as §1

[17] = test system: E. cloacae 1194E; experiment: Minimum inhibitory concentration, agar dilution; type: cell-based; conditions: Enterobacter cloacae, read-out: Minimum Inhibitory Concentration
Experimental: as §1

[18] = S. faecalis 29212A, Muller-Hinton agar, 10^7 CFU per ml, 37° C., 20 hours
[19] = Escherichia coli, E. coli 10536, Muller-Hinton agar, 10^7 CFU per ml, 37° C., 20 hours
[20] = S. typhimurium 14028A, Muller-Hinton agar, 10^7 CFU per ml, 37° C., 20 hours
[21] = E. cloacae 1194E, Muller-Hinton agar, 10^7 CFU per ml, 37° C., 20 hours

| SMILES | AUC [1] [ng·h/mL] | half-life [1] [min] | MIC [2] [µg/mL] | MIC [3] [µg/mL] | MIC [4] [µg/mL] | MIC [5] [µg/mL] | MIC [6, 18] [µg/mL] | MIC [7] [µg/mL] | MIC [8, 19] [µg/mL] | MIC [9] [µg/mL] | MIC [10] [µg/mL] | MIC [11] [µg/mL] | MIC ([12]; 3190Y, 20 h) [µg/mL] | MIC [13] [µg/mL] | MIC [14, 20] [µg/mL] | MIC [15] [µg/mL] | MIC [16] [µg/mL] | MIC ([17]; 1194E, 20 h) [µg/mL] | MIC ([6]; 29212A, 20 h) [µg/mL] | MIC ([14]; TYPHIMURIUM, 20 h) [µg/mL] | also measured |
| --- | --- | --- | --- | --- | --- | --- | --- | --- | --- | --- | --- | --- | --- | --- | --- | --- | --- | --- | --- | --- | --- |
| C[n+]1ccc(N)nc1SCC1=C(C(=O)[O-])N2C(=O)C(NC(=O)/C(=N\OC(C(=O)O)c3ccc(O)c(O)c3)c3csc(N)n3)[C@H]2SC1 (stereo partly drawn) [I-5(a), 7-[(Z)-2-(2-aminothiazol-4-yl)-2-(α-carboxy-3,4-dihydroxybenzyloxyimino)acetamido]-3-(4-amino-1-methylpyrimidinium-2-yl)thiomethyl-3-cephem-4-carboxylate] | 43600 | 39 | 2 (≈ 2.9 µM) | 0.5 (≈ 0.726 µM) | 0.5 (≈ 0.726 µM) | 0.5 (≈ 0.726 µM) | 64 (≈ 92.9 µM) | 1 (≈ 1.45 µM) | 0.031 (≈ 0.045 µM) | 0.5 (≈ 0.726 µM) | 0.5 (≈ 0.726 µM) | 0.063 (≈ 0.0915 µM) | 0.063 (≈ 0.0915 µM) | 0.25 (≈ 0.363 µM) | 0.031 (≈ 0.045 µM) | 0.25 (≈ 0.363 µM) | 0.5 (≈ 0.726 µM) | 4 (≈ 5.81 µM) |  |  |  |
| C[n+]1cc(CS(=O)(=O)O)c(N)nc1SCC1=C(C(=O)[O-])N2C(=O)C(NC(=O)/C(=N\OC(C(=O)O)c3ccc(O)c(O)c3)c3csc(N)n3)[C@H]2SC1 (stereo partly drawn) [I-7(a), 7-[(Z)-2-(2-aminothiazol-4-yl)-2-(α-carboxy-3,4-dihydroxybenzyloxyimino)acetamido]-3-(1-methyl-4-amino-5-sulfomethylpyrimidinium-2-yl)thiomethyl-3-cephem-4-carboxylate] | 53100 | 48 | 4 (≈ 5.11 µM) | 0.5 (≈ 0.639 µM) |  | 1 (≈ 1.28 µM) |  |  | 0.031 (≈ 0.0396 µM) | 0.5 (≈ 0.639 µM) | 0.25 (≈ 0.319 µM) | 0.13 (≈ 0.166 µM) | 0.063 (≈ 0.0805 µM) | 2 (≈ 2.55 µM) |  | 0.5 (≈ 0.639 µM) | 2 (≈ 2.55 µM) |  | 32 (≈ 40.9 µM) | 0.5 (≈ 0.639 µM) | MIC [17, 21]: 8 µg/mL (≈ 10.2 µM) |
| Nc1cc[n+](N)c(SCC2=C(C(=O)[O-])N3C(=O)C(NC(=O)C(=NOC(C(=O)O)c4ccc(O)c(O)c4)c4csc(N)n4)C3SC2)n1 (stereo not drawn) [I-4(a), 7-[(Z)-2-(2-aminothiazol-4-yl)-2-(α-carboxy-3,4-dihydroxybenzyloxyimino)acetamide]-3-(1,4-diaminopyrimidinium-2-yl)thiomethyl-3-cephem-4-carboxylate] | 52900 | 50 | 1 (≈ 1.45 µM) | 0.25 (≈ 0.362 µM) | 0.25 (≈ 0.362 µM) | 0.25 (≈ 0.362 µM) | 64 (≈ 92.8 µM) | 0.5 (≈ 0.725 µM) | 0.016 (≈ 0.0232 µM) | 0.5 (≈ 0.725 µM) | 0.25 (≈ 0.362 µM) | 0.063 (≈ 0.0913 µM) | 0.063 (≈ 0.0913 µM) | 0.5 (≈ 0.725 µM) | 0.031 (≈ 0.0449 µM) | 0.13 (≈ 0.188 µM) | 1 (≈ 1.45 µM) | 1 (≈ 1.45 µM) |  |  |  |
| C[n+]1cc(C(=O)O)c(N)nc1SCC1=C(C(=O)[O-])N2C(=O)C(NC(=O)/C(=N\OC(C(=O)O)c3ccc(O)c(O)c3)c3csc(N)n3)[C@H]2SC1 (stereo partly drawn) [I-6(a), 7-[(Z)-2-(2-aminothiazol-4-yl)-2-(α-carboxy-3,4-dihydroxybenzyloxyimino)acetamido]-3-(4-amino-1-methyl-5-carboxypyrimidinium-2-yl)thiomethyl-3-cephem-4-carboxylate] | 37800 | 32 | 4 (≈ 5.46 µM) | 0.5 (≈ 0.682 µM) | 0.25 (≈ 0.341 µM) | 1 (≈ 1.36 µM) |  | 0.5 (≈ 0.682 µM) | 0.031 (≈ 0.0423 µM) | 0.25 (≈ 0.341 µM) | 0.25 (≈ 0.341 µM) | 0.063 (≈ 0.086 µM) | 0.13 (≈ 0.177 µM) | 2 (≈ 2.73 µM) | 0.031 (≈ 0.0423 µM) | 0.25 (≈ 0.341 µM) | 2 (≈ 2.73 µM) | 4 (≈ 5.46 µM) | 32 (≈ 43.7 µM) |  |  |
| C[n+]1c(N)cc(N)nc1SCC1=C(C(=O)[O-])N2C(=O)C(NC(=O)C(=NOC(C(=O)O)c3ccc(O)c(O)c3)c3csc(N)n3)C2SC1 (stereo not drawn) [I-3(a), 7-[(Z)-2-(2-aminothiazol-4-yl)-2-(α-carboxy-3,4-dihydroxybenzyloximio)acetamido]-3-(4,6-diamino-1-methylpyrimidinium-2-yl)thiomethyl-3-cephem-4-carboxylate] | 55400 | 53 | 4 (≈ 5.68 µM) | 0.5 (≈ 0.71 µM) | 0.5 (≈ 0.71 µM) | 0.5 (≈ 0.71 µM) |  | 1 (≈ 1.42 µM) |  | 0.5 (≈ 0.71 µM) | 0.5 (≈ 0.71 µM) | 0.063 (≈ 0.0895 µM) |  | 0.5 (≈ 0.71 µM) |  | 0.25 (≈ 0.355 µM) | 0.5 (≈ 0.71 µM) |  | 32 (≈ 45.5 µM) | 0.063 (≈ 0.0895 µM) | MIC ([8]; Escherichia coli, 10536, 20 h): 0.063 µg/mL (≈ 0.0895 µM); MIC ([12]; E. coli 3190Y, Muller-Hinton agar, 10^7 CFU per ml, 37° C., 20 hours): 0.031 µg/mL (≈ 0.0441 µM); MIC [17, 21]: 8 µg/mL (≈ 11.4 µM) |

Source: patent US5605895A, “Cephalosporin antibiotics and processes for preparation thereof” (Lucky, Ltd., priority 1993, dated 1997)
